{
  "source": "patent US5756508A",
  "about": "“Muscarine antagonists” (Merck & Co., Inc., priority 1996, dated 1998)",
  "origin": "cited, not measured here",
  "key": {"[1]": {"tested_on": "axial elongation of the eye", "details": "background statement"}, "[2]": {"details": "background statement"}, "pupil; ciliary muscle": {"tested_on": "pupil; ciliary muscle", "details": "background statement"}, "[3]": {"tested_on": "muscarinic receptors (antimuscarinic)", "details": "background statement"}, "[4]": {"tested_on": "smooth muscle (ordinarily called m3 type)", "details": "background statement"}},
  "data": [
    {"smiles": "CN1CCN(CC(=O)N2c3ccccc3C(=O)Nc3cccnc32)CC1", "note": "[pirenzepine]", "values": [
      {"measurement": "inhibition of axial elongation / enlargement of the eye", "setting": "[1]", "value": "inhibits axial elongation"},
      {"measurement": "sensitization", "setting": "[2]", "value": "test positive in sensitization assays"},
      {"measurement": "pupil dilation (mydriasis)", "setting": "pupil; ciliary muscle", "value": "far less effective at pupil dilation than atropine"}
    ]},
    {"smiles": "CN1[C@@H]2CC[C@H]1C[C@@H](OC(=O)C(CO)c1ccccc1)C2", "note": "(stereo partly drawn) [atropine]", "values": [
      {"measurement": "antimuscarinic action / specificity", "setting": "[3]", "value": "long-acting non-specific antimuscarinic agent"},
      {"measurement": "sensitization", "setting": "[2]", "value": "test positive in sensitization assays"},
      {"measurement": "impairment of ocular focusing / near visual work", "setting": "pupil; ciliary muscle", "value": "impairs near visual work like reading"},
      {"measurement": "pupil dilation (mydriasis)", "setting": "pupil; ciliary muscle", "value": "causes mydriasis (increase of pupil size)"}
    ]},
    {"smiles": "CN1CCc2cccc3c2[C@H]1Cc1ccc(O)c(O)c1-3", "note": "[apomorphine]", "values": [
      {"measurement": "inhibition of axial elongation / enlargement of the eye", "setting": "[1]", "value": "found to inhibit or actually prevent the axial enlargement of the eye"}
    ]},
    {"smiles": "C[N+]1(C)CCC(OC(=O)C(c2ccccc2)c2ccccc2)CC1", "note": "[Example 4-DAMP, 4-diphenylacetoxy-N-methylpiperadine methiodide]", "values": [
      {"measurement": "selectivity for smooth muscle (m3 type) receptors", "setting": "[4]", "value": "relatively selective antagonist for smooth muscle"}
    ]}
  ]
}
